Literature values in PubChem BioAssay AID1259409 (Chemical Carcinogenesis Research Information System (CCRIS), 2018).

Test system: rodent chemically induced tumor inhibition, incidence and multiplicity
Experiment: CCRIS tumor inhibitor studies
Details: Carcinogen: DIETHYLNITROSAMINE, 55-18-5, N-METHYLNITROSOUREA, 684-93-5, 1,2-DIMETHYLHYDRAZINE, 540-73-8, Carcinogen: DIETHYLNITROSAMINE, 55-18-5, N-METHYLNITROSOUREA, 684-93-5, 1,2-DIMETHYLHYDRAZINE, 540-73-8, Dose [Inhibitor]: 0, Route [Inhibitor]: ORAL, Species: RAT, Strain/Sex: F344/MALE, Dose [Carcinogen]: 100 MG/KG DEN ONCE, 20 MG/KG MNU 4 TIMES, 40 MG/KG DMH 4 TIMES, 0.05% BBN IN DRINKING WATER FOR 2 WK, 0.1% DHPN IN D, Dose [Carcinogen]: 100 MG/KG DEN ONCE, 20 MG/KG MNU 4 TIMES, 40 MG/KG DMH 4 TIMES, 0.05% BBN IN DRINKING WATER FOR 2 WK, 0.1% DHPN IN D, Promoter: NONE USED

For COc1cc(C=O)ccc1O, the “tumour outcome (control, treated, inhibition, significance)” value (N-BUTYL-N-(4-HYDROXYB, N-BUTYL-N-(4-HYDROXYB, 1% IN DIET FOR 4 WK BEGINNING 1 DAY PRIOR TO CARCINOGEN TREATMENT (STUDY DURATION: 36 WK), Target Tissue: Type of Lesion: KIDNEY: ADENOMA) is given as 4/14 (29%), 4/15 (27%), 7%, not significant, the “tumour outcome (control, treated, inhibition, significance)” value (N-BUTYL-N-(4-HYDROXYB, N-BUTYL-N-(4-HYDROXYB, 1% IN DIET FOR 4 WK BEGINNING 1 DAY PRIOR TO CARCINOGEN TREATMENT (STUDY DURATION: 36 WK), Target Tissue: Type of Lesion: KIDNEY: NEPHROBLASTOMA) is given as 7/14 (50%), 8/15 (53%), -6%, not significant and the “tumour outcome (control, treated, inhibition, significance)” value (N-BUTYL-N-(4-HYDROXYB, N-BUTYL-N-(4-HYDROXYB, 1% IN DIET FOR 4 WK BEGINNING 1 DAY PRIOR TO CARCINOGEN TREATMENT (STUDY DURATION: 36 WK), Target Tissue: Type of Lesion: LARGE INTESTINE: ADENOMA) is given as 7/14 (50%), 6/15 (40%), 20%, not significant. The “tumour outcome (control, treated, inhibition, significance)” value (N-BUTYL-N-(4-HYDROXYB, N-BUTYL-N-(4-HYDROXYB, 1% IN DIET FOR 4 WK BEGINNING 1 DAY PRIOR TO CARCINOGEN TREATMENT (STUDY DURATION: 36 WK), Target Tissue: Type of Lesion: LARGE INTESTINE: CARCINOMA) was 3/14 (21%), 11/15 (73%), -248%, p<0.01, the “tumour outcome (control, treated, inhibition, significance)” value (N-BUTYL-N-(4-HYDROXYB, N-BUTYL-N-(4-HYDROXYB, 1% IN DIET FOR 4 WK BEGINNING 1 DAY PRIOR TO CARCINOGEN TREATMENT (STUDY DURATION: 36 WK), Target Tissue: Type of Lesion: LUNG: ADENOMA) was 6/14 (43%), 2/15 (13%), 70%, not significant and the “tumour outcome (control, treated, inhibition, significance)” value (N-BUTYL-N-(4-HYDROXYB, N-BUTYL-N-(4-HYDROXYB, 1% IN DIET FOR 4 WK BEGINNING 1 DAY PRIOR TO CARCINOGEN TREATMENT (STUDY DURATION: 36 WK), Target Tissue: Type of Lesion: SMALL INTESTINE: ADENOMA) was 6/14 (43%), 3/15 (20%), 53%, not significant. For the same compound, the “tumour outcome (control, treated, inhibition, significance)” value (N-BUTYL-N-(4-HYDROXYB, N-BUTYL-N-(4-HYDROXYB, 1% IN DIET FOR 4 WK BEGINNING 1 DAY PRIOR TO CARCINOGEN TREATMENT (STUDY DURATION: 36 WK), Target Tissue: Type of Lesion: SMALL INTESTINE: CARCINOMA) was 5/14 (36%), 2/15 (13%), 64%, not significant, the “tumour outcome (control, treated, inhibition, significance)” value (N-BUTYL-N-(4-HYDROXYB, N-BUTYL-N-(4-HYDROXYB, 1% IN DIET FOR 32 WK BEGINNING POST CARCINOGEN TREATMENT (STUDY DURATION: 36 WK), Target Tissue: Type of Lesion: KIDNEY: ADENOMA) was 4/14 (29%), 9/15 (60%), -107%, not significant and the “tumour outcome (control, treated, inhibition, significance)” value (N-BUTYL-N-(4-HYDROXYB, N-BUTYL-N-(4-HYDROXYB, 1% IN DIET FOR 32 WK BEGINNING POST CARCINOGEN TREATMENT (STUDY DURATION: 36 WK), Target Tissue: Type of Lesion: KIDNEY: NEPHROBLASTOMA) was 7/14 (50%), 11/15 (73%), -46%, not significant. For the same compound, the “tumour outcome (control, treated, inhibition, significance)” value (N-BUTYL-N-(4-HYDROXYB, N-BUTYL-N-(4-HYDROXYB, 1% IN DIET FOR 32 WK BEGINNING POST CARCINOGEN TREATMENT (STUDY DURATION: 36 WK), Target Tissue: Type of Lesion: LARGE INTESTINE: CARCINOMA) was 3/14 (21%), 5/15 (33%), -57%, not significant, the “tumour outcome (control, treated, inhibition, significance)” value (N-BUTYL-N-(4-HYDROXYB, N-BUTYL-N-(4-HYDROXYB, 1% IN DIET FOR 32 WK BEGINNING POST CARCINOGEN TREATMENT (STUDY DURATION: 36 WK), Target Tissue: Type of Lesion: SMALL INTESTINE: ADENOMA) was 6/14 (43%), 4/15 (27%), 37%, not significant and the “tumour outcome (control, treated, inhibition, significance)” value (N-BUTYL-N-(4-HYDROXYB, N-BUTYL-N-(4-HYDROXYB, 1% IN DIET FOR 32 WK BEGINNING POST CARCINOGEN TREATMENT (STUDY DURATION: 36 WK), Target Tissue: Type of Lesion: SMALL INTESTINE: CARCINOMA) was 5/14 (36%), 1/15 (7%), 81%, not significant. For the same compound, the “tumour outcome (control, treated, inhibition, significance)” value (N-BUTYL-N-(4-HYDROXYBU, N-BUTYL-N-(4-HYDROXYBU, 1% IN DIET FOR 32 WK BEGINNING POST CARCINOGEN TREATMENT (STUDY DURATION: 36 WK), Target Tissue: Type of Lesion: LARGE INTESTINE: ADENOMA) was 7/14 (50%), 8/15 (53%), -6%, not significant and the “tumour outcome (control, treated, inhibition, significance)” value (N-BUTYL-N-(4-HYDROXYBU, N-BUTYL-N-(4-HYDROXYBU, 1% IN DIET FOR 32 WK BEGINNING POST CARCINOGEN TREATMENT (STUDY DURATION: 36 WK), Target Tissue: Type of Lesion: LUNG: ADENOMA) was 6/14 (43%), 3/15 (20%), 53%, p<0.05.
